Measured values from patent publication US20250000971A1, “TLR4 AGONIST FOR MODULATING IMMUNE RESPONSE” (The Children's Medical Center Corporation, priority 2021, published 2025).
“Also recorded” adds a separate entry of the source.

Legend:
[1] = system: human elderly peripheral blood mononuclear cells (PBMCs); test: Enriched elderly screen: TNF-inducing activity in human elderly PBMCs (384-well); type: cell-based; conditions: screen of 310 molecules, PBMCs of 4 elderly donors, 10% autologous plasma
Source text: FIG. 1A: A graphical overview depicting screen approach. From a high throughput screen previously conducted, 310 molecules were identified to be activators of either THP-1 cells (monocyte cell line) or primary human adult peripheral blood mononuclear cells (PBMCs). These 310 molecules were assembled into a stimulation plate and then applied to the PBMCs of 4 elderly donors (cultured with 10% autologous plasma). […] Z scores were averaged across all 4 elderly donors. The Z score and chemical structure for PVP-180 are indicated.
In a previous high throughput screen (HTS), a number of hit molecules were identified as potentially being able to activate human immune cells. From 200,000 molecules screened, 177 had activity with NF-KB/IRF-inducing and leukocyte adherence/inducing activity. A separate small screen (9,000 molecules of the 200,000) was also conducted and 133 separate molecules had TNF-inducing activity in adult human peripheral blood mononuclear cells (PBMCs). These molecules originated from various bioactive and commercial libraries such as ChemDiv, ChemBridge, and Asinex. All libraries were owned and provided by the Institute of Chemistry and Cell Biology (ICCB)-Longwood (Harvard Medical School). […]

[2] = system: human adult and elderly PBMCs; test: TNF production in human adult and elderly PBMCs, 96-well format, 24 h stimulation; type: cell-based
[3] = system: human adult and elderly PBMCs; test: Cytokine responses of PBMC supernatants by 14-multiplex assay; type: cell-based
[4] = system: wild type murine bone marrow derived dendritic cells (BMDCs); test: TNF and IL-6 production by wild type murine bone marrow derived dendritic cells; type: cell-based; conditions: N=4
human TLR4 = target: T1, human TLR4 (Homo sapiens, UniProt O00206+Q9Y6Y9); test: PRR-transfected HEK reporter cell lines, TLR4; type: cell-based; conditions: HEK reporter cell line, screened at 33 μM
T1 construct: expressed in transfected cells; host or cells: HEK reporter cell line
T1 sequence (O00206 24-839): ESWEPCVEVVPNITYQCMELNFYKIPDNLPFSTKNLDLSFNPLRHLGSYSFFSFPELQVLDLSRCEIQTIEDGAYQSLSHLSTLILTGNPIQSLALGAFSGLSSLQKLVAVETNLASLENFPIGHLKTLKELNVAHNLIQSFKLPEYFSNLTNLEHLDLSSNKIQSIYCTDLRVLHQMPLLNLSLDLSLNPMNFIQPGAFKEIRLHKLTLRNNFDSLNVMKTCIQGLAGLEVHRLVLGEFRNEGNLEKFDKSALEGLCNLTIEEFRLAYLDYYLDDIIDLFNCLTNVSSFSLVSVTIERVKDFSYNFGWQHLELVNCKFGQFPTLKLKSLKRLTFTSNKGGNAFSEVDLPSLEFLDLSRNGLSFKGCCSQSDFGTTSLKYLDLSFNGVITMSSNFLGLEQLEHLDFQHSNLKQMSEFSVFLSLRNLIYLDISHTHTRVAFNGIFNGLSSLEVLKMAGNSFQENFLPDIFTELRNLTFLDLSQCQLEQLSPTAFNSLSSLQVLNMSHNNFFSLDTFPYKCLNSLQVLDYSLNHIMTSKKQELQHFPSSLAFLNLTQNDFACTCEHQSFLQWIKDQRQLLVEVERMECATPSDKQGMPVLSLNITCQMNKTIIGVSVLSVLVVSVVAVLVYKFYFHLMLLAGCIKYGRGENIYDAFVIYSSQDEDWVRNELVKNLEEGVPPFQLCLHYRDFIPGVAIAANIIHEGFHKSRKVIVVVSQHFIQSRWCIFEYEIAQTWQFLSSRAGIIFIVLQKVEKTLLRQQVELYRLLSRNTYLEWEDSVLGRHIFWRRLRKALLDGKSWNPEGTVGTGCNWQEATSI
T1 sequence (Q9Y6Y9 19-160): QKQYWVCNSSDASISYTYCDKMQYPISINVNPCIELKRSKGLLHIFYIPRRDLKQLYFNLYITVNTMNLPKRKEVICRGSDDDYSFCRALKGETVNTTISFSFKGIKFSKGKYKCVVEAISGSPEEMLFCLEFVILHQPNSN
Procedure: (§1) FIGS. 3A-3B. PVP-180 is a novel small molecule TLR4 agonist. FIG. 3A: PVP-180 was screened at 33 μM using pattern recognition receptor (PRR)-transfected HEK reporter cell lines. Cell line responses are also indicated to PRR-specific positive controls as well as a negative control. […] Further assays confirm that PVP-180 chemical stock is free of detectable endotoxin. FIG. 3B: PVP-180 was tested with THP-1 reporter cells as well as THP-1 cells with MyD88, TBK1, or IRF3 knockout. […] Results are reported as a percentage of TNF activity.

[5] = system: pattern recognition receptors (PRR) other than TLR4; test: PRR-transfected HEK reporter cell lines, other PRRs; type: cell-based; conditions: screened at 33 μM
Procedure: as §1

NF-KB = test: THP-1 reporter cells and THP-1 cells with MyD88, TBK1 or IRF3 knockout; type: cell-based; conditions: THP-1 reporter cells versus knockout strains
Procedure: as §1

[6] = system: Balb/c murine model of SARS-COV-2 immunization; test: Balb/c murine model of SARS-COV-2 immunization with rSpike with or without adjuvant; type: in vivo, mice; conditions: for rSpike immunogenicity: adult (12 weeks) and aged mice (52 weeks), booster on Day 14

SMILES: CC1CCc2cc(F)ccc2N1C(=O)c1ccc(N2CC3CC(C2)c2cccc(=O)n2C3)c(NC(=O)c2cccnc2)c1 (centres unmarked) [PVP-180]
- TNF-inducing activity toward elderly PBMCs [1]: robust activity
- TNF response as fold-change over the positive control (R848) ([2]; at 3 μM and above): more adult-like TNF response
- production of TNF ([2]; elderly and adult PBMCs, stimulated for 24 hours, N=4): titration-dependent production of TNF
- innate immune response (cytokines), elder versus younger adult leucocytes ([3]; 14-multiplex assay): greater innate immune response in elder leucocytes than in younger adult controls
- production of multiple cytokines including TNF, IFNγ and IL-10 ([3]; both populations (adult and elderly PBMCs), PVP-180 at 25 μM, N=4 donors): induced the production of multiple cytokines
- cytokine (TNF, IL-6, IL-10, IL-12, GM-CSF, IFN-γ, IL1-β, IP-10) and/or chemokine (CCL2, CCL5, CXCL8) production ([3]; human PBMC in vitro, compound alone): sufficient to induce cytokine
- induction of IL-6 production [4]: concentration-dependent induction
- induction of TNF production [4]: concentration-dependent induction
- activity toward TLR4 (human TLR4): strong activity; also recorded: significant activity
- activity toward the other PRRs tested [5]: not the other PRRs tested
- dependence of mechanism on MyD88, TBK1, IRF3 (NF-KB): dependent upon MyD88, TBK1, and IRF3
- rSpike immunogenicity [6]: enhanced rSpike immunogenicity
- rSpike immunogenicity ([6]; listed as compound of Formula (I)): enhanced antigen-specific immune response
- adjuvant activity in adult mice ([6]; adult mice, overall IgG at Day 28): adjuvant activity in immunized adult mice. though with a less pronounced effect than in aged mice
- anti-rSpike IgG2 antibodies ([6]; aged mice): increase
- antibody titers versus rSpike alone ([6]; aged mice, overall IgG at Day 28): substantially higher antibody titers
- anti-rSpike IgG1 subtype antibodies ([6]; both adult and aged mice): primarily enhanced the production
